Legend:
C2C12 myotubes = assay: IL-15 release by myotubes (ELISA); assay type: cell-based, murine; conditions: C2C12 myotubes, 48 hours
Description: IL-15 release in the medium was determined using ELISA. Data are corrected for DNA content. Values are presented as mean±SEM, n=6. Means with different letter differ with p<0.05.

IL-6 = IL-6 expression in RAW 264 macrophages; assay type: cell-based; conditions: co-culture with differentiated 3T3-L1 adipocytes
Description: RAW 264 macrophages and 3T3-L1 preadipocytes (American Type Culture Collection) were incubated at a density of 8000 cells/cm2 (10 cm2 dish) and grown in Dulbecco's modified Eagle's medium (DMEM) containing 10% FBS and antibiotics (adipocyte medium) at 37° C. in 5% CO2 in air. Confluent 3T3-L1 preadipocytes were induced to differentiate with a standard differentiation medium consisting of DMEM-F10 (1:1, vol/vol) medium supplemented with 1% FBS, 1 μM dexamethasone, IBMX (0.5 mM) and antibiotics (1% Penicillin-Streptomycin). Preadipocytes were maintained in this differentiation medium for 3 days and subsequently cultured in adipocyte medium. […]
(§1) Cells were washed with fresh adipocyte medium, re-fed with medium containing the indicated treatments, and incubated at 37° C. in 5% CO2 for 48 hours before analysis. Cell viability was measured via trypan blue exclusion.
Human adipocytes (Zen-Bio, Inc.), 3T3-L1 adipocytes, RAW264 macrophages were obtained and co-cultured by using transwell inserts with 0.4 μm porous membranes (Corning) to separate adipocytes and macrophages. All data are expressed as mean±SEM. Data were evaluated for statistical significance by analysis of one-way or two-way variance (ANOVA; means with different letter differ, p<0.05). […]

NADPH oxidase = NADPH oxidase expression in cultured adipocytes; assay type: cell-based, mouse; conditions: glucose 30 mmol/L alone or plus compound, 48 hours
Description: 3T3-L1 preadipocytes were incubated at a density of 8000 cells/cm^2 (10 cm^2 dish) and grown in Dulbecco's modified Eagle's medium (DMEM) containing 10% FBS and antibiotics (adipocyte medium) at 37° C. in 5% CO2 in air. Confluent preadipocytes were induced to differentiate with a standard differentiation medium consisting of DMEM-F10 (1:1, vol/vol) medium supplemented with 1% FBS, 1 μM dexamethasone, IBMX (0.5 mM) and antibiotics (1% Penicillin-Streptomycin). Preadipocytes were maintained in this differentiation medium for 3 days and subsequently cultured in adipocyte medium. Cultures were re-fed every 2-3 days to allow 90% of cells to reach full differentiation before conducting chemical treatment. Chemicals were freshly diluted in adipocyte medium before treatment. Cells were washed with fresh adipocyte medium, re-fed with medium containing the different treatments, and incubated at 37° C. in 5% CO2 in air before analysis. Cell viability was measured via trypan blue exclusion. Adipocyte 18s, cyclin A, NADPH oxidase, and UCP2 were quantitatively measured using a Smart Cycler Real Time PCR System (Cepheid, Sunnyvale, Calif.) with a TaqMan 1000 Core Reagent Kit (Applied Biosystems, Branchburg, N.J.). The primers and probe sets were ordered from Applied Biosystems TaqMan® Assays-on-Demand™ Gene Expression primers and probe set collection according to manufacture's instruction. Pooled adipocyte total RNA was serial-diluted in the range of 1.5625-25 ng and used to establish a standard curve; total RNAs for unknown samples were also diluted in this range. Reactions of quantitative RT-PCR for standards and unknown samples were also performed according to the instructions of Smart Cycler System (Cepheid, Sunnyvale, Calif.) and TaqMan Real Time PCR Core Kit (Applied Biosystems, Branchburg, N.J.). The mRNA quantitation for each sample was further normalized using the corresponding 18s quantitation.

TNFα = TNFα expression in RAW 264 macrophages; assay type: cell-based
Description: RAW 264 macrophages and 3T3-L1 preadipocytes (American Type Culture Collection) were incubated at a density of 8000 cells/cm2 (10 cm2 dish) and grown in Dulbecco's modified Eagle's medium (DMEM) containing 10% FBS and antibiotics (adipocyte medium) at 37° C. in 5% CO2 in air. Confluent 3T3-L1 preadipocytes were induced to differentiate with a standard differentiation medium consisting of DMEM-F10 (1:1, vol/vol) medium supplemented with 1% FBS, 1 μM dexamethasone, IBMX (0.5 mM) and antibiotics (1% Penicillin-Streptomycin). Preadipocytes were maintained in this differentiation medium for 3 days and subsequently cultured in adipocyte medium. Cultures were re-fed every 2-3 days to allow 90% cells to reach fully differentiation for 3T3-L1 adipocytes or grow to a confluence for RAW 264 before conducting chemical treatment.
as §1
Human adipocytes (Zen-Bio, Inc.), 3T3-L1 adipocytes, RAW264 macrophages were obtained and co-cultured by using transwell inserts with 0.4 μm porous membranes (Corning) to separate adipocytes and macrophages. All data are expressed as mean±SEM. Data were evaluated for statistical significance by analysis of one-way or two-way variance (ANOVA; means with different letter differ, p<0.05).
Adipocyte and muscle 18s, CD14, TNFα, MIP, M-CSF, IL-6 and MCP-1 were quantitatively measured using a Smart Cycler Real Time PCR System (Cepheid, Sunnyvale, Calif.) with a TaqMan 1000 Core Reagent Kit (Applied Biosystems, Branchburg, N.J.). […] Reactions of quantitative RT-PCR for standards and unknown samples were also performed according to the instructions of Smart Cycler System (Cepheid, Sunnyvale, Calif.) and TaqMan Real Time PCR Core Kit (Applied Biosystems, Branchburg, N.J.). The mRNA quantitation for each sample was further normalized using the corresponding 18s quantitation.

- effect on NADPH oxidase expression (NADPH oxidase): stimulated
SMILES: C=C1/C(=C\C=C2/CCC[C@]3(C)[C@@H]([C@H](C)CCCC(C)(C)O)CC[C@@H]23)C[C@@H](O)C[C@@H]1O [calcitriol, 1,25-(OH)2-D3]
- effect on IL-15 release (C2C12 myotubes): inhibitory effects
- effect on IL-6 expression in macrophages (IL-6): further enhanced
- stimulation of TNFα expression (TNFα; RAW 264 macrophages cultured alone): 91%
- effect on TNFα expression in macrophages (TNFα; co-culture with differentiated 3T3-L1 adipocytes): further enhanced
